This note sets out measurements from US12084407B2, “Cannabigerol derivatives and use thereof as cannabinoid receptor modulators” (CANOPY GROWTH CORPORATION, priority 2019, dated 2024).

Where two headings read alike, the source gives them in different places.

For one test, the target named is T1, human CB1 receptor (Homo sapiens, UniProt P21554).
T1 construct: host or cells: CHO-K1
The test is described as follows: CB1 radioligand competitive binding assay ([3H]CP 55,940 displacement).

In another test the target is T2, human CB2 receptor (Homo sapiens, UniProt P34972).
T2 construct: host or cells: CHO-K1
T2 sequence (P34972 whole entry): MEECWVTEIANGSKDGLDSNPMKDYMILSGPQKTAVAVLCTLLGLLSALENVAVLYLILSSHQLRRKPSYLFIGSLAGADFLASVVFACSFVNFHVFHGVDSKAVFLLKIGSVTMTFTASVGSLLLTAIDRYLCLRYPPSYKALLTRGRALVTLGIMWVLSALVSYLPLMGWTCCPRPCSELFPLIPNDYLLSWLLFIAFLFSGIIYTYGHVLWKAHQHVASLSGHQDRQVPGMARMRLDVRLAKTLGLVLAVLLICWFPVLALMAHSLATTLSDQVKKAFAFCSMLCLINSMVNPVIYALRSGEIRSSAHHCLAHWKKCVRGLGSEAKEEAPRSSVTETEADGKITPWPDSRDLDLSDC
The test is described as follows: CB2 radioligand competitive binding assay ([3H]CP 55,940 displacement). The conditions noted are these: for Selectivity CB2: fold difference in selectivity between CB1 and CB2 binding, in the column of the receptor with the higher binding affinity. On the procedure:
Compounds of the present disclosure were tested for CB1 receptor binding affinity and for CB2 receptor binding affinity. As used herein, “binding affinity” is represented by the IC50 value, which was experimentally determined as described herein. The lower the IC50 value the higher the binding affinity. A compound of the present disclosure may be said to have “binding selectivity” if it has a higher binding affinity for one receptor compared to the other.
The membranes were prepared from CHO-K1 (Chinese hamster ovary) cells stably transfected with the human CB2 receptor (Cat. #ES-111-C; Perkin Elmer, Boston, MA). The cells were grown adherently and maintained in Ham's F12 medium containing 10% fetal bovine serum (FBS), penicillin, streptomycin and geneticin (G418) at 37° C. in a humid atmosphere of 5% CO2 following the manufacturer's instructions.
For membrane preparation the cells were washed with PBS and scraped off the plates in cold homogenization buffer (25 mM HEPES (pH 7.4), 2 mM EDTA) containing protease inhibitor cocktail (Sigma Cat. #P8340). The cell suspension was homogenized with a Pro-PK-01200D Polytron Homogenizer (Pro Scientific) and then centrifuged for 30 min at 120,000×g. The supernatant was discarded and the pellet was re-suspended in the homogenization buffer and stored at −80° C. until the time of use.
In this experiment, 3H radiolabeled CP 55,940, i.e. [3H]CP 55,940 (Perkin Elmer, Boston, MA), was used as a radioligand for the CB2 receptor to determine the binding affinity of compounds for the CB2 receptor (Scheme 7; above).
The competition binding experiments (single dose and dose-response) were performed by incubating 0.6 nM of [3H]CP55,940 (specific activity 101 Ci/mmol, Perkin Elmer) and different concentrations of compounds disclosed herein with membranes prepared as above from CHO-K1 cells expressing human CB2 receptor (1 μg of protein/well), 50 mM Tris-HCl (pH 7.4), 5 mM MgCl2, 1 mM CaCl2, and 2 mg/mL BSA.
For the single dose experiments, the compound stocks (usually 10 mM in DMSO) were diluted to working stocks in the binding buffer to give the final compound concentrations of 10 μM and 1 μM. For the dose-response experiments the test compounds were sequentially diluted to provide the desired concentration range for the IC50 determination. In each case the compounds were pre-incubated with the membrane for 20 min, before adding the radioligand.
After incubation with the radioligand for 60 min at 37° C., the incubation was terminated by rapid filtration of assay mixture through MultiScreen®HTS^+ 96-well filter plates (Millipore, Cat. #MSFCNXB), pre-soaked for 60 min with 50 mM Tris-HCl (pH 7.4) containing 0.33% polyethylenimine (PEI). The nonspecific binding (NSB) was determined in the presence of 10 μM unlabelled CP55,940. After drying the filter plate at 50° C. for at least 60 min, the filter-bound radioactivity was determined by scintillation spectrometry using the 1450 MicroBeta Plate Counter (Perkin Elmer, Boston, MA). From the dose-response experiments, the IC50 values were determined (see Table 1, CB2 IC50).
Where the test compound had about the same affinity for both receptors, this is represented by a value of 1.00 in the column for both receptors.

Where [1] appears, read: 0.8 nM [3H]CP 55,940, membranes from CHO-K1 cells expressing human CB1 receptor, dose-response, read-out: CB1 IC50.
Setting [2] is: 0.6 nM [3H]CP55,940, membranes from CHO-K1 cells expressing human CB2 receptor, dose-response, read-out: CB2 IC50.

T1 sequence (P21554 whole entry): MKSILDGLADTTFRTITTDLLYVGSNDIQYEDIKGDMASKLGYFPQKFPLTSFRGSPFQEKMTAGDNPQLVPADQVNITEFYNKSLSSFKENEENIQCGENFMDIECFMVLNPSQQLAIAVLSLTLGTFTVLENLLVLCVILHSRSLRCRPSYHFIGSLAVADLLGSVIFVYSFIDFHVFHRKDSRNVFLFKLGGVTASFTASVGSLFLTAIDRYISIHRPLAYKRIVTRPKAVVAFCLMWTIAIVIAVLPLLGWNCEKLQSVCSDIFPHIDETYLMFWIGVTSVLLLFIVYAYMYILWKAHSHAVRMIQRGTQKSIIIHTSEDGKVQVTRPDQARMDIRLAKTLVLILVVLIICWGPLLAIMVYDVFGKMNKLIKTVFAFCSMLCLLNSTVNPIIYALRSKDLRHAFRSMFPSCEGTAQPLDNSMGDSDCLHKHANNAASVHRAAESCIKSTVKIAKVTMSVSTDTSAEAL

Regarding `CCCCCc1cc(O)c(C/C=C(\C)CCC=C(C)C)c(O)c1S(C)(=O)=O` [Compound 3, 2-(3,7-dimethylocta-2,6-dien-1-yl)-4-(methylsulfonyl)-5-pentylbenzene-1,3-diol], the IC50 (as a rule, the point on the concentration scale where inhibition reaches its midpoint) on human CB1 receptor (setting [1]) was above 1000 nM; on human CB2 receptor (setting [2]), 500 to 990 nM. Also, the “Selectivity CB2” value on human CB2 receptor stood at 1.47 fold.

Turning to `CCCCCc1cc(O)c(C/C=C(\C)CCC=C(C)C)c(O)c1S(=O)(=O)NC` [Compound 20, 3-(3,7-dimethylocta-2,6-dien-1-yl)-2,4-dihydroxy-N-methyl-6-pentylbenzenesulfonamide], the IC50 on human CB1 receptor was above 1000 nM. Besides, at human CB2 receptor, the IC50 was in the range of 100 to 490 nM and the “Selectivity CB2” value worked out at 3.93 fold.

On to `CCCCCc1cc(O)c(C/C=C(\C)CCC=C(C)C)c(O)c1S(=O)(=O)NC(C)C` [Compound 23, 3-(3,7-dimethylocta-2,6-dien-1-yl)-2,4-dihydroxy-N-isopropyl-6-pentylbenzenesulfonamide], for which the half-maximal inhibitory concentration (IC50) on human CB1 receptor (setting [1]) was above 1000 nM; on human CB2 receptor (setting [2]), 100 to 490 nM. At human CB2 receptor, the “Selectivity CB2” value is reported as 18.43 fold.

Take `CCCCCc1cc(O)c(C/C=C(\C)CCC=C(C)C)c(O)c1S(=O)(=O)Nc1ccccc1` [Compound 24, 3-(3,7-dimethylocta-2,6-dien-1-yl)-2,4-dihydroxy-6-pentyl-N-phenylbenzenesulfonamide]: the values for the IC50 on human CB1 receptor (setting [1]) and on human CB2 receptor (setting [2]) were 100 to 490 nM and below 100 nM, respectively. Also, the “Selectivity CB2” value at human CB2 receptor is recorded as 61.50 fold.

In the case of `CCCCCc1cc(O)c(C/C=C(\C)CCC=C(C)C)c(O)c1S(=O)(=O)N1CCOCC1` [Compound 28, 2-(3,7-dimethylocta-2,6-dien-1-yl)-4-(morpholinosulfonyl)-5-pentylbenzene-1,3-diol], the concentration for half-maximal inhibition (IC50) at human CB1 receptor (setting [1]) is 500 to 990 nM; on human CB2 receptor (setting [2]), below 100 nM. Moreover, the “Selectivity CB2” value on human CB2 receptor came to 266.67 fold.

On to `CCCCCc1cc(O)c(C/C=C(\C)CCC=C(C)C)c(O)c1C(=O)NS(=O)(=O)c1ccccc1` [Compound 58, 3-(3,7-dimethylocta-2,6-dien-1-yl)-2,4-dihydroxy-6-pentyl-N-(phenylsulfonyl)benzamide], for which the IC50 at human CB1 receptor (setting [1]) and at human CB2 receptor (setting [2]) was above 1000 nM each time. The “Selectivity CB2” value on human CB2 receptor came to 1.88 fold.

With `CCCCCc1cc(O)c(C/C=C(\C)CCC=C(C)C)c(O)c1S(=O)(=O)NC1CCCCC1` [Compound 62, N-cyclohexyl-3-(3,7-dimethylocta-2,6-dien-1-yl)-2,4-dihydroxy-6-pentylbenzenesulfonamide], the IC50 on human CB1 receptor (setting [1]) was above 1000 nM; at human CB2 receptor (setting [2]), 100 to 490 nM. Further, the “Selectivity CB2” value on human CB2 receptor was 9.04 fold.

Take `CCCCCc1cc(O)c(C/C=C(\C)CCC=C(C)C)c(O)c1S(=O)(=O)NC1CCC1` [Compound 63, N-cyclobutyl-3-(3,7-dimethylocta-2,6-dien-1-yl)-2,4-dihydroxy-6-pentylbenzenesulfonamide]: the IC50 at human CB1 receptor (setting [1]) was above 1000 nM; on human CB2 receptor (setting [2]) it was below 100 nM. Moreover, the “Selectivity CB2” value on human CB2 receptor stood at 24.80 fold.

As to `CCCCCCNS(=O)(=O)c1c(CCCCC)cc(O)c(C/C=C(\C)CCC=C(C)C)c1O` [Compound 64, 3-(3,7-dimethylocta-2,6-dien-1-yl)-N-hexyl-2,4-dihydroxy-6-pentylbenzenesulfonamide], the IC50 on human CB1 receptor (setting [1]) was above 1000 nM; on human CB2 receptor (setting [2]) it was 100 to 490 nM. Besides, the “Selectivity CB2” value on human CB2 receptor was 7.89 fold.

Take `C=CCNS(=O)(=O)c1c(CCCCC)cc(O)c(C/C=C(\C)CCC=C(C)C)c1O` [Compound 65, N-allyl-3-(3,7-dimethylocta-2,6-dien-1-yl)-2,4-dihydroxy-6-pentylbenzenesulfonamide]: the figures for the concentration for half-maximal inhibition (IC50) on human CB1 receptor (setting [1]) and at human CB2 receptor (setting [2]) were above 1000 nM and below 100 nM, respectively. Also, on human CB2 receptor, the “Selectivity CB2” value was 25.50 fold.

Take `CCCCCc1cc(O)c(C/C=C(\C)CCC=C(C)C)c(O)c1C(=O)NS(=O)(=O)c1cccnc1` [Compound 66, 3-(3,7-dimethylocta-2,6-dien-1-yl)-2,4-dihydroxy-6-pentyl-N-(pyridin-3-ylsulfonyl)benzamide]: the IC50 on human CB1 receptor (setting [1]) and on human CB2 receptor (setting [2]) was above 1000 nM in each case. Besides, the “Selectivity CB2” value at human CB2 receptor is 1.88 fold.

Take `CCCCCc1cc(O)c(C/C=C(\C)CCC=C(C)C)c(O)c1S(=O)(=O)Oc1ccccc1` [Compound 67, phenyl-3-(3,7-dimethylocta-2,6-dien-1-yl)-2,4-dihydroxy-6-pentylbenzenesulfonate]: the half-maximal inhibitory concentration (IC50) is above 1000 nM on human CB1 receptor (setting [1]) and 100 to 490 nM at human CB2 receptor (setting [2]). Further, the “Selectivity CB2” value on human CB2 receptor is on record as 20.83 fold.
